Values quoted from earlier work in patent US8263648B2, “Diebenzofuran derivatives as inhibitors of PDE-4 and PDE-10” (Mylan Laboratories Ltd., priority 2006, dated 2012).

Key:
[1] = oral dosages of up to 100 mg/kg
[2] = biological target: PDE10A1 (Homo sapiens, UniProt Q9Y233); conditions: substrate of PDE10A1, a splice variant of PDE10
Chain of PDE10A1 (Q9Y233 1-779 isoform Q9Y233-1): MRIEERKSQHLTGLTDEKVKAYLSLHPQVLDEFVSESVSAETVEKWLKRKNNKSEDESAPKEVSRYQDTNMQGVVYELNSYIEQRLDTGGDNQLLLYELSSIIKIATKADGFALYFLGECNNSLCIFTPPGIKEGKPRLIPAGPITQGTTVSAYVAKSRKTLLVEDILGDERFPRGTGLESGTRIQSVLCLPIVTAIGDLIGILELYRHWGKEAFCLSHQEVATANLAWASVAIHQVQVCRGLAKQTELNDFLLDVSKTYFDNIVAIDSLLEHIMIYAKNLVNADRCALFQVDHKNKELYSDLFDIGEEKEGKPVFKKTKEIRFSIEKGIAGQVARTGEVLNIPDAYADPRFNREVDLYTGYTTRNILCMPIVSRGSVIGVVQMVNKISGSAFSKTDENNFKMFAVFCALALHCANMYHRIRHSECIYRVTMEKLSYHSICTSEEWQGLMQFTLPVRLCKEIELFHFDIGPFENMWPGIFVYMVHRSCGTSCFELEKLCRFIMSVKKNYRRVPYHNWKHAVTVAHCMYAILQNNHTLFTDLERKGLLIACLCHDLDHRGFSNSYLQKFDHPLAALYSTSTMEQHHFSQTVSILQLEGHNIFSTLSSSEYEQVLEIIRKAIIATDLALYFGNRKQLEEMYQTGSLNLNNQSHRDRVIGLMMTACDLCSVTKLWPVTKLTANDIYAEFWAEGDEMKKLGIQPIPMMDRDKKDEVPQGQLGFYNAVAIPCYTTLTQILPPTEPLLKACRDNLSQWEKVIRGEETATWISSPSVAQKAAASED

In the case of `CS(=O)(=O)Nc1ccc2oc3c(OC(F)F)ccc(C(=O)Nc4c(Cl)cncc4Cl)c3c2c1` [GRC3886], the emetic effect [1] is listed as “no emetic effect”.
For `Nc1nc2c(ncn2[C@@H]2O[C@@H]3COP(=O)(O)O[C@H]3[C@H]2O)c(=O)[nH]1` [cGMP], the Km [2] is listed as 3 µM.
